Experiments:
[1] = target: B-Raf (Homo sapiens, UniProt P15056); test: Luciferase-coupled chemiluminescence kinase assay (ATP consumption), B-Raf; assay type: biochemical; conditions: read-out: bRaf IC50
How it was run: (§1)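 Raf enzyme ([…]) pre-incubated with compound 30 minutes at room temperature in 20 mM Tris pH 7.5, 10 mM MgCl2, 0.03% TX-100, 1 mM DTT, then reacted with ATP for 3 hrs at ambient temperature. Remaining ATP quantified by luciferase-luciferin chemiluminescence, consumption held at 25-60%; IC50 reported.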

[2] = target: c-Raf (Homo sapiens, UniProt P04049); test: Luciferase-coupled chemiluminescence kinase assay (ATP consumption), c-Raf; assay type: biochemical; conditions: read-out: cRaf-1 IC50
How it was run: as §1

Chain of B-Raf (P15056 whole entry): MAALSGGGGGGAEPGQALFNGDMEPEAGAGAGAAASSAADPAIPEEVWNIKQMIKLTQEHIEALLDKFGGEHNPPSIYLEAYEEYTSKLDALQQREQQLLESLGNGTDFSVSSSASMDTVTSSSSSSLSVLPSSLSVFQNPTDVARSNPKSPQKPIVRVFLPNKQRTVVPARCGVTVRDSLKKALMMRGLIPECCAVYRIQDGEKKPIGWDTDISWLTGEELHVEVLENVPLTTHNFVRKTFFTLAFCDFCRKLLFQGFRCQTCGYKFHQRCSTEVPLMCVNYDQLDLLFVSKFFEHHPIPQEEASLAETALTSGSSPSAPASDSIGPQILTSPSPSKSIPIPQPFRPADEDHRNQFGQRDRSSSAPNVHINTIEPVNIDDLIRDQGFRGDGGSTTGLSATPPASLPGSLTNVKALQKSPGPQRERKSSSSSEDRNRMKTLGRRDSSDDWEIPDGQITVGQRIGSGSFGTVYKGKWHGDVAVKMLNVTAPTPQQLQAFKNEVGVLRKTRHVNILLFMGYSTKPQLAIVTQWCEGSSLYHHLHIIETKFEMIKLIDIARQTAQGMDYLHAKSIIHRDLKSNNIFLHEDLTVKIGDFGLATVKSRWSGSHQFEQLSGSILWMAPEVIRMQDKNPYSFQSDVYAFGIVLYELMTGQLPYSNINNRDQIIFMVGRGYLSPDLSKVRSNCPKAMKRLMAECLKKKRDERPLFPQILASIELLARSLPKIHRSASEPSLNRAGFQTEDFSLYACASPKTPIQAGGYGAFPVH
Chain of c-Raf (P04049 whole entry): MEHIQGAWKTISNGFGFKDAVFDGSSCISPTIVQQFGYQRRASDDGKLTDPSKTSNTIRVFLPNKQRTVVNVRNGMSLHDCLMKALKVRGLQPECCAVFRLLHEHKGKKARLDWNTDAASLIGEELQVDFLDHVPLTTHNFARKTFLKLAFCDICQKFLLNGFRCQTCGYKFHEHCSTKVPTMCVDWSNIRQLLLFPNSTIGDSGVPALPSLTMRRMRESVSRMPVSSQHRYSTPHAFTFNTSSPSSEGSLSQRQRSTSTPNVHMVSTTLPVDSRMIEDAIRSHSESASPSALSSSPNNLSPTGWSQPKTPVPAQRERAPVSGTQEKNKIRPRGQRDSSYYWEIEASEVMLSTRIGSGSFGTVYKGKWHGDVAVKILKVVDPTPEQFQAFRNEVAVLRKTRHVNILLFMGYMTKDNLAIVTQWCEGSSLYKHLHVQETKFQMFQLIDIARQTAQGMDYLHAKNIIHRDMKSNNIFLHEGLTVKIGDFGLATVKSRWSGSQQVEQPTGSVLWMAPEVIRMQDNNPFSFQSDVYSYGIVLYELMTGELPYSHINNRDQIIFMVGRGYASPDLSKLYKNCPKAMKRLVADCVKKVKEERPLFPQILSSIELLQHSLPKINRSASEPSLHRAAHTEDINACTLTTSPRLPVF

SMILES | IC50 [1] [µM] | IC50 [2] [µM]
COC(=O)Nc1nc2cc(C3(O)c4ccccc4C(=O)N3c3ccccc3OC)ccc2[nH]1 (stereo not drawn) [Entry 145, methyl (5-{1-hydroxy-2-[2-(methyloxy)phenyl]-3-oxo-2,3-dihydro-1H-isoindol-1-yl}-1H-benzimidazol-2-yl)carbamate] | < 0.1 | < 0.1
COC(=O)Nc1nc2cc(C3(O)c4ccccc4C(=O)N3c3ccc(C)cc3)ccc2[nH]1 (stereo not drawn) [Entry 146, methyl {5-[1-hydroxy-2-(4-methylphenyl)-3-oxo-2,3-dihydro-1H-isoindol-1-yl]-1H-benzimidazol-2-yl}carbamate] | 0.1 to 1 | 0.1 to 1
COC(=O)Nc1nc2cc(C3(O)c4ccccc4C(=O)N3c3cccc(C(F)(F)F)c3)ccc2[nH]1 (stereo not drawn) [Entry 147, methyl (5-{1-hydroxy-3-oxo-2-[3-(trifluoromethyl)phenyl]-2,3-dihydro-1H-isoindol-1-yl}-1H-benzimidazol-2-yl)carbamate] | < 0.1 | < 0.1
CC#CCOC(=O)Nc1nc2cc(C3(O)c4ccccc4C(=O)N3[C@H](C)c3ccccc3)ccc2[nH]1 (stereo partly drawn) [Entry 148, but-2-yn-1-yl (5-{1-hydroxy-3-oxo-2-[(1R)-1-phenylethyl]-2,3-dihydro-1H-isoindol-1-yl}-1H-benzimidazol-2-yl)carbamate] | < 0.1 | < 0.1
CCNC(=O)Nc1nc2cc(C3(O)c4ccccc4C(=O)N3Cc3ccccc3)ccc2[nH]1 (stereo not drawn) [Entry 149, N-ethyl-N′-{5-[1-hydroxy-3-oxo-2-(phenylmethyl)-2,3-dihydro-1H-isoindol-1-yl]-1H-benzimidazol-2-yl}urea] | < 0.1 | < 0.1
C[C@H](c1ccccc1)N1C(=O)c2ccccc2C1(O)c1ccc2[nH]c(NC(=O)OCc3ccccc3)nc2c1 (stereo partly drawn) [Entry 150, phenylmethyl (5-{1-hydroxy-3-oxo-2-[(1R)-1-phenylethyl]-2,3-dihydro-1H-isoindol-1-yl}-1H-benzimidazol-2-yl)carbamate] | < 0.1 | < 0.1
COC(=O)Nc1nc2ccc(C3(O)c4ccccc4C(=O)N3c3cc(N)cc(Cl)c3)cc2[nH]1 (stereo not drawn) [Entry 151, methyl {6-[2-(3-amino-5-chlorophenyl)-1-hydroxy-3-oxo-2,3-dihydro-1H-isoindol-1-yl]-1H-benzimidazol-2-yl}carbamate] | < 0.1 | < 0.1
O=C(Nc1nc2cc(C3(O)c4ccccc4C(=O)N3Cc3ccccc3)ccc2[nH]1)OCC1CCNCC1 (stereo not drawn) [Entry 152, piperidin-4-ylmethyl {5-[1-hydroxy-3-oxo-2-(phenylmethyl)-2,3-dihydro-1H-isoindol-1-yl]-1H-benzimidazol-2-yl}carbamate] | < 0.1 | 0.1 to 1
COC(=O)Nc1nc2cc(C3(O)c4ccccc4C(=O)N3CC3CC3)ccc2[nH]1 (stereo not drawn) [Entry 153, methyl {5-[2-(cyclopropylmethyl)-1-hydroxy-3-oxo-2,3-dihydro-1H-isoindol-1-yl]-1H-benzimidazol-2-yl}carbamate] | 0.1 to 1 | 0.1 to 1
COC(=O)Nc1nc2cc(C3(O)c4ccccc4C(=O)N3CC(C)(C)C)ccc2[nH]1 (stereo not drawn) [Entry 154, methyl {5-[2-(2,2-dimethylpropyl)-1-hydroxy-3-oxo-2,3-dihydro-1H-isoindol-1-yl]-1H-benzimidazol-2-yl}carbamate] | 1 to 10 | 1 to 10
COC(=O)Nc1nc2cc(C3(O)c4ccccc4C(=O)N3c3cc(Cl)cc(Cl)c3)ccc2[nH]1 (stereo not drawn) [Entry 155, methyl {5-[2-(3,5-dichlorophenyl)-1-hydroxy-3-oxo-2,3-dihydro-1H-isoindol-1-yl]-1H-benzimidazol-2-yl}carbamate] | < 0.1 | < 0.1
COC(=O)Nc1nc2cc(C3(O)c4ccccc4C(=O)N3c3cc(F)cc(F)c3)ccc2[nH]1 (stereo not drawn) [Entry 156, methyl {5-[2-(3,5-difluorophenyl)-1-hydroxy-3-oxo-2,3-dihydro-1H-isoindol-1-yl]-1H-benzimidazol-2-yl}carbamate] | 0.1 to 1 | 0.1 to 1
CCNC(=O)Nc1nc2cc(C3(O)c4ccccc4C(=O)N3[C@H](C)c3ccccc3)ccc2[nH]1 (stereo partly drawn) [Entry 157, N-ethyl-N′-(5-{1-hydroxy-3-oxo-2-[(1R)-1-phenylethyl]-2,3-dihydro-1H-isoindol-1-yl}-1H-benzimidazol-2-yl)urea] | < 0.1 | < 0.1
CN(C)C(=O)Nc1nc2cc(C3(O)c4ccccc4C(=O)N3Cc3ccccc3)ccc2[nH]1 (stereo not drawn) [Entry 158, N′-{5-[1-hydroxy-3-oxo-2-(phenylmethyl)-2,3-dihydro-1H-isoindol-1-yl]-1H-benzimidazol-2-yl}-N,N-dimethylurea] | < 0.1 | < 0.1
COC(=O)Nc1nc2cc(C3(O)c4ccccc4C(=O)N3c3cccc(OCCN(C)C)c3)ccc2[nH]1 (stereo not drawn) [Entry 159, methyl {5-[2-(3-{[2-(dimethylamino)ethyl]oxy}phenyl)-1-hydroxy-3-oxo-2,3-dihydro-1H-isoindol-1-yl]-1H-benzimidazol-2-yl}carbamate] | 1 to 10 | 0.1 to 1
CN1CCN(CCCOC(=O)Nc2nc3ccc(C4(O)c5ccccc5C(=O)N4Cc4ccccc4)cc3[nH]2)CC1 (stereo not drawn) [Entry 160, 3-(4-methylpiperazin-1-yl)propyl {6-[1-hydroxy-3-oxo-2-(phenylmethyl)-2,3-dihydro-1H-isoindol-1-yl]-1H-benzimidazol-2-yl}carbamate] | < 0.1 | < 0.1
COC(=O)Nc1nc2cc(C3(O)c4ccccc4C(=O)N3CC3CCCCC3)ccc2[nH]1 (stereo not drawn) [Entry 161, methyl {5-[2-(cyclohexylmethyl)-1-hydroxy-3-oxo-2,3-dihydro-1H-isoindol-1-yl]-1H-benzimidazol-2-yl}carbamate] | < 0.1 | < 0.1
COC(=O)Nc1nc2cc(C3(O)c4ccccc4C(=O)N3CC(C)C)ccc2[nH]1 (stereo not drawn) [Entry 162, methyl {5-[1-hydroxy-2-(2-methylpropyl)-3-oxo-2,3-dihydro-1H-isoindol-1-yl]-1H-benzimidazol-2-yl}carbamate] | 0.1 to 1 | 0.1 to 1
COC(=O)Nc1nc2cc(C3(O)c4ccccc4C(=O)N3Cc3nccs3)ccc2[nH]1 (stereo not drawn) [Entry 163, methyl {5-[1-hydroxy-3-oxo-2-(1,3-thiazol-2-ylmethyl)-2,3-dihydro-1H-isoindol-1-yl]-1H-benzimidazol-2-yl}carbamate] | 0.1 to 1 | 0.1 to 1
COC(=O)Nc1nc2cc(C3(O)c4ccccc4C(=O)N3c3ccc(F)c(F)c3)ccc2[nH]1 (stereo not drawn) [Entry 164, methyl {5-[2-(3,4-difluorophenyl)-1-hydroxy-3-oxo-2,3-dihydro-1H-isoindol-1-yl]-1H-benzimidazol-2-yl}carbamate] | < 0.1 | < 0.1
COC(=O)Nc1nc2cc(C3(O)c4ccccc4C(=O)N3C(C)c3cc(F)cc(F)c3)ccc2[nH]1 (stereo not drawn) [Entry 165, methyl (5-{2-[1-(3,5-difluorophenyl)ethyl]-1-hydroxy-3-oxo-2,3-dihydro-1H-isoindol-1-yl}-1H-benzimidazol-2-yl)carbamate] | 1 to 10 | 0.1 to 1
COC(=O)Nc1nc2cc(C3(O)c4ccccc4C(=O)N3C(C)c3cccc(F)c3)ccc2[nH]1 (stereo not drawn) [Entry 166, methyl (5-{2-[1-(3-fluorophenyl)ethyl]-1-hydroxy-3-oxo-2,3-dihydro-1H-isoindol-1-yl}-1H-benzimidazol-2-yl)carbamate] | < 0.1 | 0.1 to 1
COC(=O)Nc1nc2cc(C3(O)c4ccccc4C(=O)N3C3CCCCC3)ccc2[nH]1 (stereo not drawn) [Entry 167, methyl [5-(2-cyclohexyl-1-hydroxy-3-oxo-2,3-dihydro-1H-isoindol-1-yl)-1H-benzimidazol-2-yl]carbamate] | < 0.1 | < 0.1
COC(=O)Nc1nc2cc(C3(O)c4ccccc4C(=O)N3c3cc(F)ccc3F)ccc2[nH]1 (stereo not drawn) [Entry 168, methyl {5-[2-(2,5-difluorophenyl)-1-hydroxy-3-oxo-2,3-dihydro-1H-isoindol-1-yl]-1H-benzimidazol-2-yl}carbamate] | < 0.1 | < 0.1
O=C(NCc1ccccc1)Nc1nc2cc(C3(O)c4ccccc4C(=O)N3Cc3ccccc3)ccc2[nH]1 (stereo not drawn) [Entry 169, N-{5-[1-hydroxy-3-oxo-2-(phenylmethyl)-2,3-dihydro-1H-isoindol-1-yl]-1H-benzimidazol-2-yl}-N′-(phenylmethyl)urea] | < 0.1 | < 0.1
O=C(Nc1nc2cc(C3(O)c4ccccc4C(=O)N3Cc3ccccc3)ccc2[nH]1)OC1CCNCC1 (stereo not drawn) [Entry 170, piperidin-4-yl {5-[1-hydroxy-3-oxo-2-(phenylmethyl)-2,3-dihydro-1H-isoindol-1-yl]-1H-benzimidazol-2-yl}carbamate] | < 0.1 | < 0.1
CNC(=O)Nc1nc2cc(C3(O)c4ccccc4C(=O)N3Cc3ccccc3)ccc2[nH]1 (stereo not drawn) [Entry 171, N-{5-[1-hydroxy-3-oxo-2-(phenylmethyl)-2,3-dihydro-1H-isoindol-1-yl]-1H-benzimidazol-2-yl}-N′-methylurea] | < 0.1 | < 0.1
COC(=O)Nc1nc2cc(C3(O)c4ccccc4C(=O)N3C(C)c3ccccc3F)ccc2[nH]1 (stereo not drawn) [Entry 172, methyl (5-{2-[1-(2-fluorophenyl)ethyl]-1-hydroxy-3-oxo-2,3-dihydro-1H-isoindol-1-yl}-1H-benzimidazol-2-yl)carbamate] | 1 to 10 | 1 to 10
COC(=O)Nc1nc2cc(C3(O)c4ccccc4C(=O)N3C(C)c3cccs3)ccc2[nH]1 (stereo not drawn) [Entry 173, methyl (5-{1-hydroxy-3-oxo-2-[1-(2-thienyl)ethyl]-2,3-dihydro-1H-isoindol-1-yl}-1H-benzimidazol-2-yl)carbamate] | < 0.1 | < 0.1
COC(=O)Nc1nc2cc(C3(O)c4ccccc4C(=O)N3C(C)c3cccc(Cl)c3)ccc2[nH]1 (stereo not drawn) [Entry 174, methyl (5-{2-[1-(3-chlorophenyl)ethyl]-1-hydroxy-3-oxo-2,3-dihydro-1H-isoindol-1-yl}-1H-benzimidazol-2-yl)carbamate] | < 0.1 | 0.1 to 1

— patent US7846959B2, “Raf modulators and methods of use” (Exelixis, Inc., priority 2004, dated 2010)
